Reference: patent US11168073B2, “3,3-difluoroallylamines or salts thereof and pharmaceutical compositions comprising the same” (YUHAN CORPORATION, priority 2018, dated 2021)
Structures can show the parent of a compound that is named as a salt.

Assays:
Assay type in all cases: biochemical
[1] = molecular target: T1, recombinant human MAO-B (monoamine oxidase-B) (Homo sapiens, UniProt P27338); experiment: Activity evaluation on recombinant human MAO-B (Amplex Red/HRP-coupled assay, 1 mM benzylamine substrate); conditions: 1 mM benzylamine, read-out: Inhibitory Activity (IC50, nM) MAO-B
T1 construct: purchased Sigma-Aldrich
T1 sequence (P27338 1-520): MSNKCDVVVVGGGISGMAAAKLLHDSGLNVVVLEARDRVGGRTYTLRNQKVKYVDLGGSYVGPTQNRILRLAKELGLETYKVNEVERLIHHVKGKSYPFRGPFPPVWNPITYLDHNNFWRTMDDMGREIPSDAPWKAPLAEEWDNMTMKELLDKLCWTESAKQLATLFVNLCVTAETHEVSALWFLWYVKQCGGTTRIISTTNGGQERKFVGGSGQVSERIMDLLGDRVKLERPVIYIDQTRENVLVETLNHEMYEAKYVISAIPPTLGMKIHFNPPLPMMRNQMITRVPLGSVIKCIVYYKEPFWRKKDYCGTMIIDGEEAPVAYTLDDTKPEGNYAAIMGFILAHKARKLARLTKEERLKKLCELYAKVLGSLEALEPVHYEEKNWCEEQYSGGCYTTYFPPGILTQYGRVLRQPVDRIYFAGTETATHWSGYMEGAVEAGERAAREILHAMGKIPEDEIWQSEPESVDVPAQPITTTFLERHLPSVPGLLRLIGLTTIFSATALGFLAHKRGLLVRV
In short: (§1)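 8-pt 1:3 dilution series, final DMSO <1%; 30 min 37 °C preincubation w/ enzyme, 50 mM Na phosphate pH 7.4; + 200 uM Amplex Red, 1 U/mL HRP, substrate (MAO-A tyramine 0.5 mM; MAO-B benzylamine 1 mM; DAO putrescine 1 mM); fluor. rate 544/590 nm, 1-2 h; 4-param IC50.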

recombinant human VAP-1 = molecular target: T2, recombinant human VAP-1 (Homo sapiens, UniProt Q16853); experiment: Activity evaluation on recombinant human VAP-1 (Amplex Red/HRP-coupled hydrogen peroxide assay, benzylamine substrate); conditions: recombinant human VAP-1; 30 min preincubation at 37° C.; 1 mM benzylamine; read-out: Inhibitory Activity (IC50, nM) human VAP-1
T2 construct: purchased R&D systems
T2 sequence (Q16853 1-763): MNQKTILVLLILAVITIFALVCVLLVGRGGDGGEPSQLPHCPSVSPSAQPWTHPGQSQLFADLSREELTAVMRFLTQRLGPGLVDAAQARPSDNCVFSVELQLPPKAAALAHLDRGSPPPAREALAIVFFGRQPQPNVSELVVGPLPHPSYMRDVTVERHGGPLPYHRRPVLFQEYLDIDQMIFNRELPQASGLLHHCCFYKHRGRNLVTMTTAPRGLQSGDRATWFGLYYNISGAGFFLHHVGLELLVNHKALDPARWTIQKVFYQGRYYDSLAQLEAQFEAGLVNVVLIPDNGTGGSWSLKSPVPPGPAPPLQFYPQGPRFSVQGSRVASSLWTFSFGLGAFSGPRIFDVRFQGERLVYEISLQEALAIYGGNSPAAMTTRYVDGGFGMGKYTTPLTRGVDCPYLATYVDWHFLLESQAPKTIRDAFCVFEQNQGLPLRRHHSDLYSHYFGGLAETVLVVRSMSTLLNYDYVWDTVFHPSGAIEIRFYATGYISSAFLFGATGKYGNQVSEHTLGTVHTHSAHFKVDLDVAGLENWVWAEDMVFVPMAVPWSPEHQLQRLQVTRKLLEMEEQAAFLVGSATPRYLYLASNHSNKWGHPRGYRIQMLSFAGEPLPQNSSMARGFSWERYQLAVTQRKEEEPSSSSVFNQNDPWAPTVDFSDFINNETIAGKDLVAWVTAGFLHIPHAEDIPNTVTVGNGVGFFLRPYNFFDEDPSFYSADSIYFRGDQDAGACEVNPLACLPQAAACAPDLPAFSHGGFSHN
In short: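 Hydrogen peroxide from benzylamine (1 mM) oxidation by human recombinant VAP-1 detected via HRP-coupled Amplex Red (200 uM) fluorescence, kinetic over 1–2 h. Enzyme and compound preincubated 30 min at 37 °C, pH 7.4 phosphate; 8-point dose response, signal-rate decrease versus DMSO control fitted to four-parameter logistic for IC50.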

[2] = molecular target: T3, recombinant human MAO-A (monoamine oxidase-A) (Homo sapiens, UniProt P21397); experiment: Activity evaluation on recombinant human MAO-A (Amplex Red/HRP-coupled assay, 0.5 mM tyramine substrate); conditions: 0.5 mM tyramine, read-out: Inhibitory Activity (IC50, nM) MAO-A
T3 construct: purchased Sigma-Aldrich
T3 sequence (P21397 1-527): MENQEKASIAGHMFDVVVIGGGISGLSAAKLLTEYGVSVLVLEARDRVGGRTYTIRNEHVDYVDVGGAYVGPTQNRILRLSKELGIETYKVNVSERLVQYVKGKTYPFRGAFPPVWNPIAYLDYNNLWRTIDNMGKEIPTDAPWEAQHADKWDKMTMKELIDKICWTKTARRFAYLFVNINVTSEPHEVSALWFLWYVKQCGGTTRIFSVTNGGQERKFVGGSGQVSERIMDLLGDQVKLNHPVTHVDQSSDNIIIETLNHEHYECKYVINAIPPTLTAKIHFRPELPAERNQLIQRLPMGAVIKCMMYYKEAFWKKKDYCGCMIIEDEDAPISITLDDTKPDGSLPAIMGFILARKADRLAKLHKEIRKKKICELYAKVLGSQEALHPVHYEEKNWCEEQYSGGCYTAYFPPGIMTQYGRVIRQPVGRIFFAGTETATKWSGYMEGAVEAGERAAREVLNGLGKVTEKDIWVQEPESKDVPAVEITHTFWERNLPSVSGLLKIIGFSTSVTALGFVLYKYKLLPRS
In short: as §1

[3] = molecular target: T4, recombinant human DAO (diamine oxidase) (Homo sapiens, UniProt P19801); experiment: Activity evaluation on recombinant human DAO (Amplex Red/HRP-coupled assay, 1 mM putrescine substrate); conditions: 1 mM putrescine, read-out: Inhibitory Activity (IC50, nM) DAO
T4 construct: purchased R&D systems
T4 sequence (P19801 20-751): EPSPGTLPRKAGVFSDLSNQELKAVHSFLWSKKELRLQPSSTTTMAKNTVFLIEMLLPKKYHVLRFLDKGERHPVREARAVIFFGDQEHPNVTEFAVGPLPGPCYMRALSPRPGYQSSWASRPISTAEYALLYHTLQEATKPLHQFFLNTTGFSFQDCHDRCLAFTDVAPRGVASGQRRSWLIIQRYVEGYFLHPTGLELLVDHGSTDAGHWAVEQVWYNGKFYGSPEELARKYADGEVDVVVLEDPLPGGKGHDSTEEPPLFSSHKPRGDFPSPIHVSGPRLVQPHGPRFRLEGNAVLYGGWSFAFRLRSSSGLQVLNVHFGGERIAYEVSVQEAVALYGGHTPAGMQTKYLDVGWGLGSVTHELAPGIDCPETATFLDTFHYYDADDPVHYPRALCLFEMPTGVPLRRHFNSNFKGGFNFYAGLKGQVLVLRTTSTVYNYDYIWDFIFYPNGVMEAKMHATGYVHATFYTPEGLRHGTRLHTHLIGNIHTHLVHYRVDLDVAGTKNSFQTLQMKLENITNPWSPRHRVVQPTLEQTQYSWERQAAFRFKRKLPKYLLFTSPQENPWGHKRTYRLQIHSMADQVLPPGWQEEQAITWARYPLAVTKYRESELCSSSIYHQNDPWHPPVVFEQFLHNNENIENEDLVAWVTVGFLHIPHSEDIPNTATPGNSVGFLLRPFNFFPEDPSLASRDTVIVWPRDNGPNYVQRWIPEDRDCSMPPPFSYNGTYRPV
In short: as §1

SMILES | IC50 [1] [nM] | IC50 (recombinant human VAP-1) [nM] | IC50 [2] [nM] | IC50 [3] [nM]
Cc1cc(Br)sc1Cn1cnn(CC(CN)=C(F)F)c1=O [Example 99, 2-[2-(aminomethyl)-3,3-difluoro-allyl]-4-[(5-bromo-3-methyl-2-thienyl)methyl]-1,2,4-triazol-3-one Trifluoroacetate] | 21000 | 9.3 | > 100000 | > 100000
CC(=O)c1ccc(-c2ccc(Cn3cnn(CC(CN)=C(F)F)c3=O)s2)cc1 [Example 100, 4-[[5-(4-acetylphenyl)-2-thienyl]methyl]-2-[2-(aminomethyl)-3,3-difluoro-allyl]-1,2,4-triazol-3-one trifluoroacetate] | 11000 | 0.5 | > 100000 | > 10000
CNC(=O)c1ccc(-c2ccc(Cn3cnn(CC(CN)=C(F)F)c3=O)s2)cc1 [Example 104, 4-[5-[[1-[2-(aminomethyl)-3,3-difluoro-allyl]-5-oxo-1,2,4-triazol-4-yl]methyl]-2-thienyl]-N-methyl-benzamide trifluoroacetate] | > 10000 | 0.5 | > 100000 | 31000
COc1cc(-c2ccc(Cn3cnn(CC(CN)=C(F)F)c3=O)s2)cc(OC)c1OC [Example 105, 2-[2-(aminomethyl)-3,3-difluoro-allyl]-4-[[5-(3,4,5-trimethoxyphenyl)-2-thienyl]methyl]-1,2,4-triazol-3-one Trifluoroacetate] | 6500 | 1.5 | > 100000 | > 10000
NCC(Cn1ncn(Cc2ccc(-c3ccc(N4CCNCC4)cc3)s2)c1=O)=C(F)F [Example 106, 2-[2-(aminomethyl)-3,3-difluoro-allyl]-4-[[5-(4-piperazin-1-ylphenyl)-2-thienyl]methyl]-1,2,4-triazol-3-one Ditrifluoroacetate] | > 100000 | 4.7 | > 100000 | 860
NCC(Cn1ncn(Cc2ccc(-c3cccc(N4CCNCC4)c3)s2)c1=O)=C(F)F [Example 107, 2-[2-(aminomethyl)-3,3-difluoro-allyl]-4-[[5-(3-piperazin-1-ylphenyl)-2-thienyl]methyl]-1,2,4-triazol-3-one Ditrifluoroacetate] | 46000 | 3.5 | > 100000 | 12000
CC(=O)N1CCN(c2ccc(-c3ccc(Cn4cnn(CC(CN)=C(F)F)c4=O)s3)cc2)CC1 [Example 108, 4-[[5-[4-(4-acetylpiperazin-1-yl)phenyl]-2-thienyl]methyl]-2-[2-(aminomethyl)-3,3-difluoro-allyl]-1,2,4-triazol-3-one Trifluoroacetate] | > 10000 | 2 | > 10000 | 42000

More lines, now with the values ahead:

IC50 [1] [nM] | IC50 (recombinant human VAP-1) [nM] | IC50 [2] [nM] | IC50 [3] [nM] | SMILES
67000 | 0.3 | > 100000 | 21000 | CS(=O)(=O)c1ccc(-c2ccc(Cn3cnn(CC(CN)=C(F)F)c3=O)s2)cc1 [Example 101, 2-[2-(aminomethyl)-3,3-difluoro-allyl]-4-[[5-(4-methylsulfonylphenyl)-2-thienyl]methyl]-1,2,4-triazol-3-one Trifluoroacetate]
5400 | 0.4 | > 100000 | > 10000 | CS(=O)(=O)c1cccc(-c2ccc(Cn3cnn(CC(CN)=C(F)F)c3=O)s2)c1 [Example 102, 2-[2-(aminomethyl)-3,3-difluoro-allyl]-4-[[5-(3-methylsulfonylphenyl)-2-thienyl]methyl]-1,2,4-triazol-3-one Trifluoroacetate]
4200 | 0.9 | > 100000 | 22000 | CN(C)S(=O)(=O)c1cccc(-c2ccc(Cn3cnn(CC(CN)=C(F)F)c3=O)s2)c1 [Example 103, 3-[5-[[1-[2-(aminomethyl)-3,3-difluoro-allyl]-5-oxo-1,2,4-triazol-4-yl]methyl]-2-thienyl]-N,N-dimethyl-benzenesulfonamide trifluoroacetate]
